Source: patent US12497597B2, “Methods of generating and expanding hematopoietic stem cells” (CHILDREN'S HOSPITAL MEDICAL CENTER, priority 2019, dated 2025)

Key:
[1] = test system: Notch activity; assay: Notch inhibition in organoid cultures with the γ-secretase inhibitor DAPT; format: cell-based, human
[2] = test system: liver organoid cultures; assay: Notch dependency test: DLL4 added to Matrigel drops of liver organoid culture with hematopoietic cytokines; format: cell-based, human
Method: Day 7 spheroids were collected by manual pipetting and pelleted by centrifugation. Media was aspirated and cells were embedded in 100% Matrigel by gentle pipetting to homogenize the cell pellet. Optionally, a Notch activator or ligand is added to the Matrigel (e.g. 10 μg/mL, of […]). Alternatively, optionally, UCB cells are added to the Matrigel for co-culture with organoids (e.g. 1,000 UCB cells per 75 μL of Matrigel). 250 μL Matrigel (Corning) was used per well of a 24-well plate of definitive endoderm culture. 75 μL Matrigel drops were made, 1 drop per each well of a fresh 24-well plate (VWR). The plates were placed at 37° C. in an atmosphere of 5% CO2/95% air for 5-15 minutes. After the Matrigel was solidified, Advanced DMEM/F12 with 1×B27, 1×N2, 2 mM L-glutamine, 15 mM HEPES, and 1× penicillin/streptomycin was added to the wells. This media was supplemented with 20 ng/mL BMP4 and 10 ng/mL, FGF2 for 4 days, and then the BMP4 and FGF2 were removed.
Organoids were isolated from Matrigel drops and washed with 1×PBS. HLOs were dissociated to single cells by treatment with Trypsin-EDTA (0.05%, with phenol red, Gibco) for 10 minutes. Cells were washed in DMEM/F12 with 10% FBS and suspended in PBS with 2% FBS. After filtration (e.g. through a 40-50 μm nylon filter), the single cells were subjected to flow cytometry with the following antibodies: anti-CD45-APC (Miltenyl, 130-098-143), anti-CD34-APC/Cy7 (BioLegend, 343513), anti-CD11b-PE/Cy7 (BioLegend, 301322), anti-CD19-BV421 (BioLegend, 302233), anti-CD27-AF700 (BioLegend, 356415), anti-CD43-FITC (BioLegend, 315204). For mouse engraftment experiments, anti-mouse CD45-BV421 (BioLegend, 103133) was used.
RNA was isolated using the RNeasy mini kit (Qiagen). Reverse transcription was carried out using the High-Capacity cDNA. Reverse Transcription Kit (Thermo Fisher) according to manufacturer's protocol. qPCR was carried out in duplicate using TagMan Gene Expression Master Mix (Applied Biosystems) and probes from the Universal Probe Library (Roche) on a QuantStudio 3 Real-Time PCR System (Thermo Fisher). […]

HES1 expression ([1]; different concentrations of DAPT, 4 days of treatment from day 6, FIG. 10C)	albumin expression ([1]; different concentrations of DAPT, 4 days of treatment from day 6, FIG. 10D)	visible erythrocytes ([1]; light microscopy, 100 μM DAPT vs DMSO control, 12 days of treatment, FIG. 10A)	Molecule	production of CD45+ hematopoietic cells ([2]; DLL4 1-10 μg/mL in Matrigel drops at organoid seeding, medium with IL-3, IL-34, GM-CSF 100 ng/mL each, FIG. 8)	IL-6 expression ([2]; qPCR, organoids at day 18, DLL4 plus cytokines IL-3, IL-34, GM-CSF, FIG. 9A)	albumin expression ([2]; qPCR, organoids at day 18, DLL4 plus cytokines IL-3, IL-34, GM-CSF, FIG. 9B)
decrease	maintaining albumin expression	decrease in visible erythrocytes	C[C@H](NC(=O)Cc1cc(F)cc(F)c1)C(=O)N[C@H](C(=O)OC(C)(C)C)c1ccccc1 [DAPT]	–	–	–
–	–	–	DLL4: Notch ligand added to the Matrigel drops during organoid seeding	increased the efficiency of cytokines in producing CD45^+ hematopoietic cells	significant increase	modest decrease
